Reference: patent publication US12421206B2, “Aryl-n-aryl derivatives for treating a RNA virus infection” (ABIVAX, priority 2018, dated 2025)

System: DENV-2 strain 16681
Assay: DENV-2 inhibition (cytopathic effect inhibition) using Viral ToxGlo assay in A549 cells
Format: cell-based, Dengue 2 virus
Details: Dengue virus, DENV2, 120 h, compounds at 10 μM, MOI 0.5, 5 days p.i., read-out: % DENV-2 Inhibition Mean (n = 3)
Experimental: Protocol for Screening Antiviral Compounds for DENV-2 Inhibition and Cytotoxicity Using Viral ToxGlo Assay
A549 cells were maintained in Dulbecco's Modified Eagle Medium (DMEM) supplemented with 10% fetal bovine serum, 100 U/ml penicillin and 100 μg/ml streptomycin. For the purposes of the screening assay they were grown to 90% confluency, trypsinized and recovered. The trypsin was neutralised with cell culture media and cells were centrifuged at 150×g for 5 minutes before discarding the supernatant and resuspending cell pellet in assay media (DMEM supplemented with 2% fetal bovine serum and 100 U/ml penicillin and 100 μg/ml streptomycin). The cells were seeded into 96-well white clear-bottomed cell culture plates at a density of 1.0×10^4 cells/well in 50 μl. For the media/background control column assay media only was added. Cell plates were placed in a humid chamber and incubated overnight at 37° C./5% CO2. After overnight incubation cells were checked for confluency and healthy appearance.
Test compounds were prepared at a final concentration of 10 μM in a maximum DMSO concentration of 1% (final assay concentration maximal 0.1% DMSO) and added to the cell plates in volumes of 10 μl. For cell control and virus control wells the test article solvent only was added. As a positive inhibition control, 7-Deaza-2′-C-methyladenosine was added at 100 μM in 3 wells. Virus (DENV-2 strain 16681) or assay media for cytotoxicity test wells and media/cell control wells was added immediately after test articles at an MOI of 0.5, 40 for 96 well plates respectively. Virus suspension was prepared by thawing DENV-2 frozen stocks and diluting to the required concentration of plaque forming units in assay media.
Cell plates were further incubated inside a humid chamber for 5 days p.i at 37° C./5% CO2. After the incubation period cells were observed under the microscope to check for characteristic cytopathic effect in virus control wells and healthy cells in the cell control wells. After plates were adjusted to room temperature 20 μl Viral ToxGlo (Promega) was added to each well of the 96-well cell plates. Plates were incubated at room temperature for 5 minutes before measuring the luminescence on a spectrophotometer (Envision, PerkinElmer).
DENV-2 inhibition was calculated as percentage of cytopathic effect inhibition relative to the virus control and cytotoxicity as percentage of cell survival relative to cell control wells.

SMILES | inhibition at 10 µM
Cc1cc(OCc2ccccn2)ccc1Nc1cccc(NC(=O)NCCC(C)C)c1 [Compound 68, 1-isopentyl-3-(3-((2-methyl-4-(pyridin-2-ylmethoxy)phenyl)amino)phenyl)urea] | 70%
O=C(NCCC1CCCCC1)c1cccc(Nc2ccc(OCc3ccccn3)cc2)c1 [Compound 38, N-(2-cyclohexylethyl)-3-((4-(pyridin-2-ylmethoxy)phenyl)amino)benzamide] | 65%
Cc1cc(OCc2ccccn2)ccc1Nc1cccc(C(=O)NCCC2CC2)c1 [Compound 45, N-(2-cyclopropylethyl)-3-((2-methyl-4-(pyridin-2-ylmethoxy)phenyl)amino)benzamide] | 89%
Cc1cc(OCc2ccccn2)ccc1Nc1cccc(C(=O)NCCC2CCC2)c1 [Compound 46, N-(2-cyclobutylethyl)-3-((2-methyl-4-(pyridin-2-ylmethoxy)phenyl)amino)benzamide] | 71%
CCCC(C)NC(=O)c1cccc(Nc2ccc(OCc3ccccn3)cc2)c1 (centres unmarked) [Compound 64, N-(pentan-2-yl)-3-((4-(pyridin-2-ylmethoxy)phenyl)amino)benzamide] | 93%
